Experimental data published in patent US9975906B2, “Tricyclic heterocycle derivatives having HIV replication inhibitory effect” (Shionogi & Co., Ltd., priority 2014, dated 2018).
pEC50, pIC50: −log10 of the molar value.

Legend:
CYP2D6 = target: T1, CYP2D6 (Homo sapiens, UniProt P10635); test: CYP Inhibition Assay (dextromethorphan O-demethylation); type: in vitro ADME; conditions: pooled human hepatic microsome, 5 μmol/L dextromethorphan, 15 minutes, 37° C.
T1 construct: enzyme, pooled human hepatic microsome 0.2 mg protein/mL; from tissue
Experimental: (§1) Using commercially available pooled human hepatic microsome, and employing, as markers, 7-ethoxyresorufin O-deethylation (CYP1A2), tolbutamide methyl-hydroxylation (CYP2C9), mephenytoin 4'-hydroxylation (CYP2C19), dextromethorphan O-demethylation (CYP2D6), and terfenadine hydroxylation (CYP3A4) as typical substrate metabolism reactions of human main five CYP enzyme forms (CYP1A2, 2C9, 2C19, 2D6, 3A4) an inhibitory degree of each metabolite production amount by a test compound was assessed. […] After the centrifugation at 3000 rpm for 15 minutes, resorufin (CYP1A2 metabolite) in the supernatant was quantified by a fluorescent multilabel counter and tolbutamide hydroxide (CYP2C9 metabolite), mephenytoin 4' hydroxide (CYP2C19 metabolite), dextrorphan (CYP2D6 metabolite), and terfenadine alcohol (CYP3A4 metabolite) were quantified by LC/MS/MS. A reaction system containing only DMSO which is a solvent for dissolving a drug was adopted as a control (100%), and the remaining activity (%) was calculated, then IC50 was calculated by reverse presumption with a logistic model using a concentration and an inhibition rate.

CYP3A4 = target: T2, CYP3A4 (Homo sapiens, UniProt P08684); test: CYP Inhibition Assay (terfenadine hydroxylation); type: in vitro ADME; conditions: pooled human hepatic microsome, 1 μmol/L terfenedine, 15 minutes, 37° C.
T2 construct: enzyme, pooled human hepatic microsome 0.2 mg protein/mL; from tissue
Experimental: as §1

[1] = Metabolism Stability Test; type: in vitro ADME; conditions: compound concentration 0.5 μmol/L, human liver microsomes, NADPH, 37° C., 30 minutes
Experimental: Commercially available pooled human hepatic microsomes and a test compound were reacted for a constant time, then a remaining rate was calculated by comparing a reacted sample and an unreacted sample, thereby a degree of metabolism of the test compound in liver was assessed. A reaction was performed (oxidative reaction) at 37° C. for 0 minute or 30 minutes in the presence of 1 mmol/L NADPH in 0.2 mL of a buffer (50 mmol/L Tris-HCl, pH 7.4, 150 mmol/L potassium chloride, 10 mmol/L magnesium chloride) containing 0.5 mg protein/mL of human liver microsomes. After the reaction, 50 μL of the reaction solution was added to 100 μL of a methanol/acetonitrile=1/1 (v/v), mixed and centrifuged at 3000 rpm for 15 minutes. The test compound in the supernatant was quantified by LC/MS/MS, and a remaining amount of the test compound after the reaction wad calculated, letting a compound amount at 0 minute reaction time to be 100%. Hydrolysis reaction was performed in the absence of NADPH and glucuronidation reaction was in the presence of 5 mM UDP-glucuronic acid in place of NADPH, followed by similar operations. (Result) The residual rate of the compound concentration 0.5 μmol/L in the oxidation reaction was shown below.

HIV (HTLV-IIIB strain) = test: HIV Replication Inhibition Assay; type: cell-based; conditions: Human immunodeficiency virus 1, MT4, 96 h, MT-4 cells, cultured four days, MTT, concentration at which cell cytotoxicity by virus is inhibited 50%
Experimental: HIV (HTLV-IIIB strain) persistent infected human T cell strain Molt-4 clone 8 was cultured in 10% Fetal Bovine Serum-containing RPMI-1640 medium and the supernatant was filtered, then the virus titer was measured and the solution was stored at −80° C. Each anti-human immunodeficiency virus active substance was diluted with the above cultured medium to the designated concentration, which was dispensed into 96 well micro plate by 50 μL. Next, a MT-4 cell suspended liquid was dispensed by 100 μL (2.5×10^4 cells), then the above HIV-containing supernatant diluted with the above cultured medium was added thereto by 50 μl (60 pfu (plaque forming unit)).
The obtained mixture was cultured at 37° C. in CO2 incubator for four days, then 3-(4,5-dimethylthiazole-2-yl)-2,5-diphenyltetrazolynium bromide (MTT) 5 mg/mL in PBS was added to each well by 30 μL, followed by 1 hr-cultivation. In this step, as formazan was precipitated by reduction of MTT in living cells, the cell supernatant was removed from all was by 150 μL, then a 150 μL of solution (10% Triton X-100 and 0.4% (v/v)-HCl containing isopropanol) was added thereto, followed by shaking with a plate mixer, to elute formazan. The formazan was measured with a microreader at OD: 560 nm and 690 nm (reference wavelength) and the result was compared with the reference. EC50 means the compound concentration at which cell cytotoxicity by virus is inhibited 50%.

CYP2C9 = target: T3, CYP2C9 (Homo sapiens, UniProt P11712); test: CYP Inhibition Assay (tolbutamide methyl-hydroxylation); type: in vitro ADME; conditions: pooled human hepatic microsome, 100 μmol/L tolbutamide, 15 minutes, 37° C.
T3 construct: enzyme, pooled human hepatic microsome 0.2 mg protein/mL; from tissue
Experimental: as §1

T2 sequence (P08684 whole entry): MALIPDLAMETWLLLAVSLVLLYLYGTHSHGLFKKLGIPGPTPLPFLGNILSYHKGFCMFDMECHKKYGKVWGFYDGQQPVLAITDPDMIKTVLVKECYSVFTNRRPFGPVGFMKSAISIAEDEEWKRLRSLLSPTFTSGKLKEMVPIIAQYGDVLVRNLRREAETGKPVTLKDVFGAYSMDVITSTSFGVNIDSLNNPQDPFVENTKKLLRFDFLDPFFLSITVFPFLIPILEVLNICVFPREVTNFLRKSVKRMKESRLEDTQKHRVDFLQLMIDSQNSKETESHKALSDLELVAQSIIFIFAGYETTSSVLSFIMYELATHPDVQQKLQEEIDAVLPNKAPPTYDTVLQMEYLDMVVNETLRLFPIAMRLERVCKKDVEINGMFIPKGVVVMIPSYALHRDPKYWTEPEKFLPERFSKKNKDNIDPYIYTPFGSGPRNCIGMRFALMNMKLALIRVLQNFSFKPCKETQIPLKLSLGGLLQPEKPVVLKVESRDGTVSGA
T3 sequence (P11712 whole entry): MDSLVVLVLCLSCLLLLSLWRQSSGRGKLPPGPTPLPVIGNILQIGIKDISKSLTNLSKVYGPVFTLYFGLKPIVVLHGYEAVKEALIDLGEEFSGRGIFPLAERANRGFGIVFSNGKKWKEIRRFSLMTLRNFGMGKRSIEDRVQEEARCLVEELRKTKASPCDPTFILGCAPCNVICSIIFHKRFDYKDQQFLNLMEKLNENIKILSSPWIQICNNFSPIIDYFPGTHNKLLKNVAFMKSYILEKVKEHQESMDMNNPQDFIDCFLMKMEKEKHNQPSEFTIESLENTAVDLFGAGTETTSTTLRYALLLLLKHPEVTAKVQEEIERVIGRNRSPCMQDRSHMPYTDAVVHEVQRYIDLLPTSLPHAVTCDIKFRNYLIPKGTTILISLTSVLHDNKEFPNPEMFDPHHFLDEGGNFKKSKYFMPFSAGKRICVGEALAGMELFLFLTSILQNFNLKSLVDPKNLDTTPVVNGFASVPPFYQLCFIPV
T1 sequence (P10635 whole entry): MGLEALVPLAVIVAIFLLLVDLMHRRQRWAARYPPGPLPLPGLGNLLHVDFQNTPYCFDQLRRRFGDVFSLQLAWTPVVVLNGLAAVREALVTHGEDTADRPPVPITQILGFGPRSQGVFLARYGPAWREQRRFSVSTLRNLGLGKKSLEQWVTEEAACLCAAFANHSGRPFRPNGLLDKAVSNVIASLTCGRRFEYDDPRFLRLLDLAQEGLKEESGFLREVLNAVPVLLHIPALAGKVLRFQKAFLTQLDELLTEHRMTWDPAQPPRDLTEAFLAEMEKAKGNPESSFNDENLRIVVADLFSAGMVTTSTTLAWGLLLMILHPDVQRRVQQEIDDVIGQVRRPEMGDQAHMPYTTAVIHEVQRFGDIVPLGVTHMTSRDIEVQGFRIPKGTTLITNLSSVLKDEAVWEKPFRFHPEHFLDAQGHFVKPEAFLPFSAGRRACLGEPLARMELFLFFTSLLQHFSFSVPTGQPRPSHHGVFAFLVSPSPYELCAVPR

## Cc1ccc(-c2c([C@H](OC(C)(C)C)C(=O)O)c(C)c3c4c2cc(-c2ccnc(-c5ccc6c(cnn6C)c5)c2)n4CCN3CCN(C)C)cc1 [Compound I-034]
CYP2D6
  pIC50: < 4.70
CYP3A4
  pIC50: < 4.70
[1]
  residual rate in the oxidation reaction: > 99.9%
HIV (HTLV-IIIB strain)
  pEC50: 8.62
CYP2C9
  pIC50: < 4.70
